From the supplement of paper PMC10307832

Experiments:
Test in all cases: relative viability (nuclei count vs DMSO), 5 days (fraction); higher = more cells survive
YM155 = compound: COCC[n+]1c2c(n(Cc3cnccn3)c1C)C(=O)c1ccccc1C2=O [YM155]
In short: (§1)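 Lung cancer cell lines were seeded into 1536-well plates, kept overnight at 37 °C and pinned with five library-drug doses (not always all listed) spaced by √10. After 5 days, nuclei were Hoechst-stained, imaged at 4× and counted with MetaXpress. Viability is treated-well nuclei over vehicle-well nuclei, taken as a median across plates. Plates needed control CV below 25% and at least one doubling.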

Quizartinib = compound: CC(C)(C)c1cc(NC(=O)Nc2ccc(-c3cn4c(n3)sc3cc(OCCN5CCOCC5)ccc34)cc2)no1 [Quizartinib]
In short: as §1

Quizartinib + Navitoclax = compound: CC(C)(C)c1cc(NC(=O)Nc2ccc(-c3cn4c(n3)sc3cc(OCCN5CCOCC5)ccc34)cc2)no1 [Quizartinib] + CC1(C)CCC(c2ccc(Cl)cc2)=C(CN2CCN(c3ccc(C(=O)NS(=O)(=O)c4ccc(N[C@H](CCN5CCOCC5)CSc5ccccc5)c(S(=O)(=O)C(F)(F)F)c4)cc3)CC2)C1 [Navitoclax] (partner 0.5 µM)
In short: (§2)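 Five library-drug doses in √10 steps were combined with a fixed anchor-drug dose, or a single drug was given alone, by pin tool to lung cancer cell lines in 1536-well plates the day after seeding. Nuclei were stained and counted after 5 days. Relative viability is the nuclei count in treated wells over that in vehicle wells, taken as the median of duplicate plates.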

YM155 + Phenformin = compound: COCC[n+]1c2c(n(Cc3cnccn3)c1C)C(=O)c1ccccc1C2=O [YM155] + N=C(N)NC(=N)NCCc1ccccc1 [Phenformin] (partner 250 µM)
In short: as §2

Cell Line	relative viability (YM155; 0.002 µM)	relative viability (YM155; 0.006325 µM)	relative viability (YM155; 0.02 µM)	relative viability (YM155; 0.06325 µM)	relative viability (Quizartinib; 0.001 µM)	relative viability (Quizartinib; 0.003162 µM)	relative viability (Quizartinib; 0.01 µM)	relative viability (Quizartinib; 0.03162 µM)	relative viability (Quizartinib; 0.1 µM)	relative viability (Quizartinib + Navitoclax; first compound 0.001 µM)	relative viability (Quizartinib + Navitoclax; first compound 0.003162 µM)	relative viability (Quizartinib + Navitoclax; first compound 0.01 µM)	relative viability (Quizartinib + Navitoclax; first compound 0.03162 µM)	relative viability (Quizartinib + Navitoclax; first compound 0.1 µM)	relative viability (YM155 + Phenformin; first compound 0.002 µM)	relative viability (YM155 + Phenformin; first compound 0.006325 µM)	relative viability (YM155 + Phenformin; first compound 0.02 µM)	relative viability (YM155 + Phenformin; first compound 0.06325 µM)
NCI-H1734	0.995	0.956	1.01	1.1	0.924	0.959	1.03	0.943	1.01	0.741	0.794	0.888	0.788	0.849	0.43	0.451	0.404	0.509
201T	0.922	1.01	1.01	0.998	1.01	1.01	0.987	0.98	0.934	1.24	1.21	1.25	1.24	1.25	0.405	0.443	0.492	0.475
HCC-827	0.986	1.05	1.03	1.11	0.943	1.04	0.978	1.03	1.09	0.987	1.03	1.05	0.957	1.13	0.419	0.404	0.375	0.473
LCLC-97TM1	0.791	0.955	1.04	0.957	0.771	0.968	0.918	0.964	1		0.669	0.489	0.355	0.413	0.387	0.432	0.407	0.447
NCI-H441	0.9	1.15	0.795	0.759	0.919	0.946	0.945	0.764	1.14	0.562	0.567	1.29	0.591	1.05	0.776	0.848	0.763	0.865
NCI-H838	0.912	0.999	1.01	0.768	0.894	0.962	0.882	0.936	0.843	1.09	1.06	1.08	1.06	0.815	0.54	0.625	0.583	0.717
NCI-H1437	0.89	0.96	0.983	0.826	0.942	0.963	0.973	0.822	0.849	0.954	0.994	1.04	0.904	0.8	0.285	0.308	0.257	0.324
LXF-289	0.998	1.01	1.04	0.973	0.924	0.976	1.05	0.957	0.998	0.804	0.961	0.976	0.948	0.912	0.522	0.524	0.506	0.532
LU99A	1.01	1.01	0.984	0.938	0.889	0.906	1.05	1.09	0.842	0.796	0.8	0.913	0.776	0.383	0.856	0.883	0.822	0.847
HOP-62	0.971	0.93	1.06	0.93	0.843	0.954	1.01	1.1	0.979	1	0.888	1.16	1.01	1.1	0.566	0.648	0.658	0.6
NCI-H1915	0.888	0.994	0.997	0.817	0.877	0.925	0.865	0.998	1.02	0.771	0.75	0.833	0.822	0.785	0.351	0.357	0.368	0.355
SW 1573	1.02	0.939	0.803	0.394	0.87	0.971	1.09	0.481	1.08	1.1	0.864	0.954	0.981	0.968	0.365	0.305	0.394	0.338
HCC-44	0.986	1.03	0.988	0.978	0.963	0.981	0.888	1	0.858	0.891	0.952	1.04	0.955	0.817	0.132	0.283	0.248	0.202
HARA	0.823	1.15	1.05	1.09	0.946	0.924	1.05	0.954	0.941	0.783	1.14	1.12	1.14	1.16	0.476	0.444	0.48	0.425
A549	1.02	0.984	0.995	0.906	0.751	0.976	0.928	0.884	1.05	1.26	1.11	1.25		1.13	0.17	0.0769	0.177	0.137
HCC-366	1.05	0.993	1.01	1.06	0.978	1.04	1.06	1.04	1.02	0.799	1.01	0.957	1.06	0.903	0.592	0.55	0.628	0.597
